In US4612322A, “Azole type dioxolane derivatives” (Shionogi & Co., Ltd., priority 1983, dated 1986):
In brackets after ≈: the same amount, converted by molar mass.

Key:
Trichophyton asteroides = assay: Antimycotic test against Trichophyton asteroides (in vitro, Sabouraud's dextrose broth); type: cell-based; conditions: read-out: Minimum Inhibitory Concentration (MIC)
Excerpt: Sabouraud's dextrose broth* was used as culture medium.

Candida albicans KE-2 [1] = assay: Test on inhibition against formation of the pseudohyphae in Candida albicans; type: cell-based; conditions: KE2; Candida albicans KE-2, 1×10^6 cells/ml, Eagle broth + 20% bovine serum, 37° C., 18 hours; read-out: Inhibitory concentration against pseudohyphae formation
Experimental: To Eagle MEN broth (Nissan 2, Nissui Seiyaku Co., Ltd.) was added 20% bovine serum and inoculated Candida albicans KE-2 yeast cells at rate of 1×10^6 cells/ml (final inoculum size), and each test compound was added thereto in two-fold serial dilution method. After termination of cultivation at 37° C. for 18 hours, each organism of the serial dilution was smeared and fixed on a slide glass and stained by Giemsa's staining, and occurrence of the pseudohyphae was observed under a microscope. Minimum concentration which could inhibit the formation of pseudohyphae was regarded as the inhibitory concentration of the compound against pseudohyphae formation.

Candida albicans KE-2 [2] = assay: Therapeutic effect against experimental candidasis in mice; type: in vivo, Jcl-ICR female mice; conditions: 15th day from infection; 25 mg/Kg oral, twice per day for 5 days; 5×10^5 Candida albicans KE-2 cells i.v.; eight mice; control 0
Experimental: Candida albicans KE-2 was cultured in a Sabouraud's dextrose agar at 28° C. for 48 hours, and the resulting culture was suspended in the Sabouraud's dextrose broth. The resulting cells (5×10^5) were intravenously administered at the tail of Jcl-ICR female mice (4 weeks age, body weight: 18-20 g). Each test compound suspended in 2% gum-arabic was orally administered at a dose of 25 mg/Kg twice per day for 5 days; on the first day, the test compound is administered twice, i.e., immediately after the infection and 2 hours later; on the second day or later, 24 hours after the administration of the previous day respectively. After the infection, no test compound was administered to a control group. Eight mice were employed in the control group and the test groups to which the test compound was administered The therapuetic effect was evaluated on the survival rate at the 15th day from the day of infection; the result is shown below.

[3] = in vivo, po; cited from earlier work

SMILES | MIC (Trichophyton asteroides) | minimal effective concentration (Candida albicans KE-2 [1]) | Survival rate (Candida albicans KE-2 [2]) | adverse reactions [3]
O=S1OC(c2ccc(Cl)cc2Cl)C(Cn2cncn2)(c2ccc(Cl)cc2)O1 (single isomer, unassigned) [Compound 27B] | 0.1 µg/mL (≈ 0.225 µM) | 0.02 µg/mL | 75% | 
CC(C)C1OC(=O)OC1(Cn1cncn1)c1ccc(Cl)cc1Cl (stereo not shown) [Compound 2] | 3.1 µg/mL (≈ 8.7 µM) | 0.63 µg/mL | 100% | 
Cc1ccc(C2OC(=O)OC2(Cn2cncn2)c2ccccc2Cl)cc1 (stereo not shown) [Compound 15] | 3.1 µg/mL (≈ 8.38 µM) | 0.63 µg/mL |  | 
O=C1OC(c2ccccc2Cl)C(Cn2cncn2)(c2ccccc2Cl)O1 (stereo not shown) [Compound 7] |  | 0.31 µg/mL |  | 
O=C1OC(c2ccc(F)cc2)C(Cn2cncn2)(c2ccc(Cl)cc2Cl)O1 (stereo not shown) [Compound 1, 4-(2,4-dichlorophenyl)-5-(4-fluorophenyl)-2-oxo-4-(1H-1,2,4-triazol-1-yl)methyl-1,3-dioxolane] | 0.1 µg/mL (≈ 0.245 µM) | 0.31 µg/mL | 87.5% | 
Cc1ccc(C2OC(=O)OC2(Cn2cncn2)c2ccc(C)cc2)cc1 (stereo not shown) [Compound 11] |  | 1.25 µg/mL |  | 
CC1(C)OC(c2ccc(Cl)cc2Cl)C(Cn2cncn2)(c2ccc(Cl)cc2)O1 (stereo not shown) [Compound 39, 4-(4-chlorophenyl)-5-(2,4-dichlorophenyl)-2,2-dimethyl-4-(1H-1,2,4-triazol-1-yl)methyl-1,3-dioxolane] | 0.8 µg/mL (≈ 1.82 µM) | 5 µg/mL |  | 
O=C1OC(c2ccccc2)C(Cn2cncn2)(c2ccc(Cl)cc2Cl)O1 (stereo not shown) [Compound 3] | 0.1 µg/mL (≈ 0.256 µM) |  |  | 
CC(=O)N1CCN(c2ccc(OCC3COC(Cn4ccnc4)(c4ccc(Cl)cc4Cl)O3)cc2)CC1 (stereo not shown) [Ketoconazole] |  |  |  | hepatic dysfunction
CCCC1OC(=O)OC1(Cn1cncn1)c1ccc(Cl)cc1Cl (stereo not shown) [Compound 12] | 1.6 µg/mL (≈ 4.49 µM) |  |  | 
CCCCC1OC(=O)OC1(Cn1cncn1)c1ccc(Cl)cc1Cl (stereo not shown) [Compound 4] | 0.2 µg/mL (≈ 0.54 µM) |  |  | 
O=C1OC(c2ccc(F)cc2)C(Cn2cncn2)(c2ccc(F)cc2)O1 (stereo not shown) [Compound 8] | 3.1 µg/mL (≈ 8.68 µM) |  |  | 
O=C1OC(c2ccccc2)C(Cn2ccnc2)(c2ccc(Cl)cc2Cl)O1 (stereo not shown) [Compound 23] | 0.1 µg/mL (≈ 0.257 µM) | 0.16 µg/mL |  | 
CCCC1OCOC1(Cn1cncn1)c1ccc(Cl)cc1 (stereo not shown) [Compound 33] | 0.2 µg/mL (≈ 0.65 µM) | 0.16 µg/mL |  | 
Fc1ccc(C2OCOC2(Cn2cncn2)c2ccc(Cl)cc2Cl)cc1 (stereo not shown) [Compound 34] | 0.1 µg/mL (≈ 0.254 µM) | 0.31 µg/mL |  | 
O=C1OC(c2ccc(Cl)cc2)C(Cn2cncn2)(c2ccc(Cl)cc2Cl)O1 (single isomer, unassigned) [Compound 19] | 0.2 µg/mL (≈ 0.471 µM) | 0.04 µg/mL | 86% | 
O=C1OC(c2ccc(Cl)cc2Cl)C(Cn2cncn2)(c2ccc(Cl)cc2)O1 (stereo not shown) [Compound 5] |  | 0.63 µg/mL | 100% | 
